In PubChem BioAssay AID1259411 (Chemical Carcinogenesis Research Information System (CCRIS), 2018):
Calls of active or inactive are those of the source. How the calls were made is not given here.

Test system: rodent carcinogenicity bioassays, tumor incidence
Test: CCRIS carcinogenicity studies
Procedure, shortened: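 Archive of carcinogenicity, mutagenicity, tumor promotion and tumor inhibition results drawn from journals, NCI reports and other sources, expert-reviewed; covers 1985-2011 and is no longer updated.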

`COc1c(Cl)c(Cl)c([N+](=O)[O-])c(Cl)c1Cl` was tested, and the carcinogen call (Species: MOUSE, Strain/Sex: B6C3F1/FEMALE, Route: ORAL, Dose: 0, 0.006, 0.012% OF DIET, Dose: 0, 0.006, 0.012% OF DIET) was “inactive; negative”, the carcinogen call (Species: MOUSE, Strain/Sex: B6C3F1/MALE, Route: ORAL, Dose: 0, 0.006, 0.012% OF DIET, Dose: 0, 0.006, 0.012% OF DIET) was “inactive; negative” and the carcinogen call (Species: RAT, Strain/Sex: F344/FEMALE, Route: ORAL, Dose: 0, 0.006, 0.012% OF DIET, Dose: 0, 0.006, 0.012% OF DIET) was “inactive; negative”. The carcinogen call (Species: RAT, Strain/Sex: F344/MALE, Route: ORAL, Dose: 0, 0.006, 0.012% OF DIET, Dose: 0, 0.006, 0.012% OF DIET) was “inactive; negative”.
`CC=O` was tested, and the carcinogen call (Species: RAT, Strain/Sex: WISTAR/FEMALE, Route: INHALATION, Dose: 0, 750, 1500, 3000 PPM 6 HR/D 5 D/WK AFTER 4 MO HIGH DOSE REDUCED TO 2150 PPM THEN 1500 PPM AT 6 MO AND 1000 PPM AT 12 M, Dose: 0, 750, 1500, 3000 PPM 6 HR/D 5 D/WK AFTER 4 MO HIGH DOSE REDUCED TO 2150 PPM THEN 1500 PPM AT 6 MO AND 1000 PPM AT 12 M, Tumor Site: Type of Lesion: NASAL CAVITY: TUMOR) was “active; positive” and the carcinogen call (Species: RAT, Strain/Sex: WISTAR/MALE, Route: INHALATION, Dose: 0, 750, 1500, 3000 PPM 6 HR/D 5 D/WK AFTER 4 MO HIGH DOSE REDUCED TO 2150 PPM THEN 1500 PPM AT 6 MO AND 1000 PPM AT 12 M, Dose: 0, 750, 1500, 3000 PPM 6 HR/D 5 D/WK AFTER 4 MO HIGH DOSE REDUCED TO 2150 PPM THEN 1500 PPM AT 6 MO AND 1000 PPM AT 12 M, Tumor Site: Type of Lesion: NASAL CAVITY: TUMOR) was “active; positive”.
`CC1(C)[C@H](C(=O)O[C@H](C#N)c2cccc(Oc3ccccc3)c2)[C@@H]1C=C(Br)Br` was tested, and the carcinogen call (Species: MOUSE, Strain/Sex: C57BL/FEMALE, Route: INTRAGASTRIC, Dose: 0, 1, 4, 8 MG/KG IN ARACHIS OIL 5 D/WK FOR 104 WK (STUDY DURATION: 120 WK), Dose: 0, 1, 4, 8 MG/KG IN ARACHIS OIL 5 D/WK FOR 104 WK (STUDY DURATION: 120 WK)) was “inactive; negative”, the carcinogen call (Species: MOUSE, Strain/Sex: C57BL/MALE, Route: INTRAGASTRIC, Dose: 0, 1, 4, 8 MG/KG IN ARACHIS OIL 5 D/WK FOR 104 WK (STUDY DURATION: 120 WK), Dose: 0, 1, 4, 8 MG/KG IN ARACHIS OIL 5 D/WK FOR 104 WK (STUDY DURATION: 120 WK)) was “inactive; negative” and the carcinogen call (Species: MOUSE, Strain/Sex: SWISS/MALE, FEMALE, Route: DERMAL, Dose: 0, 1, 2, 4 MG/KG BW IN 200 µL ACETONE 3/WK FOR 32 WK (STUDY DURATION: 32 WK), Dose: 0, 1, 2, 4 MG/KG BW IN 200 µL ACETONE 3/WK FOR 32 WK (STUDY DURATION: 32 WK)) was “inactive; negative”. For the same compound, the carcinogen call (Species: Mouse, Strain/Sex: Crl:CD-1(ICR)BR/Female (50/Group), Route: Oral, Dose: 0, 10, 100, 1000, 2000 ppm in feed for 97 wk, Dose: 0, 10, 100, 1000, 2000 ppm in feed for 97 wk) was “inactive; negative”, the carcinogen call (Species: Mouse, Strain/Sex: Crl:CD-1(ICR)BR/Male (50/Group), Route: Oral, Dose: 0, 10, 100, 1000, 2000 ppm in feed for 97 wk, Dose: 0, 10, 100, 1000, 2000 ppm in feed for 97 wk) was “inactive; negative” and the carcinogen call (Species: RAT, Strain/Sex: BDVI/FEMALE, Route: INTRAGASTRIC, Dose: 0, 3, 6 MG/KG IN ARACHIS OIL 5 D/WK FOR 104 WK (STUDY DURATION: 120 WK), Dose: 0, 3, 6 MG/KG IN ARACHIS OIL 5 D/WK FOR 104 WK (STUDY DURATION: 120 WK), Tumor Site: Type of Lesion: THYROID: ADENOMA) was “active; positive”. The carcinogen call (Species: RAT, Strain/Sex: BDVI/MALE, Route: INTRAGASTRIC, Dose: 0, 3, 6 MG/KG IN ARACHIS OIL 5 D/WK FOR 104 WK (STUDY DURATION: 120 WK), Dose: 0, 3, 6 MG/KG IN ARACHIS OIL 5 D/WK FOR 104 WK (STUDY DURATION: 120 WK), Tumor Site: Type of Lesion: THYROID: ADENOMA) was “active; positive”, the carcinogen call (Species: Rat, Strain/Sex: Crl:CD(SD)BR/Female (50/Group), Route: Oral, Dose: 0, 25, 125, 500, 800 ppm in feed for 2 yr, Dose: 0, 25, 125, 500, 800 ppm in feed for 2 yr) was “inactive; negative” and the carcinogen call (Species: Rat, Strain/Sex: Crl:CD(SD)BR/Male (50/Group), Route: Oral, Dose: 0, 25, 125, 500, 800 ppm in feed for 2 yr, Dose: 0, 25, 125, 500, 800 ppm in feed for 2 yr) was “inactive; negative”.
`Clc1cc2oc3c(Cl)c(Cl)c(Cl)cc3c2cc1Cl` was tested, and the carcinogen call (Species: RAT, Strain/Sex: SPRAGUE-DAWLEY/FEMALE, Route: ORAL, Dose: 0, 6, 20, 44, 92, 200 NG/KG/D (STUDY DURATION: 2 YRS), Dose: 0, 6, 20, 44, 92, 200 NG/KG/D (STUDY DURATION: 2 YRS)) was “inactive; negative”, the carcinogen call (Species: RAT, Strain/Sex: WISTAR/MALE, Route: SUBCUTANEOUS, Dose: 0, 4, 40 UG ONCE IN OLIVE OIL (STUDY DURATION: 104 WK), Dose: 0, 4, 40 UG ONCE IN OLIVE OIL (STUDY DURATION: 104 WK), Tumor Site: Type of Lesion: LIVER: HEPATOCELLULAR CARCINOMA, NODULE, INJECTION SITE: TUMOR) was “active; positive” and the carcinogen call (Species: RAT, Strain/Sex: WISTAR/MALE, Route: SUBCUTANEOUS, Dose: 0, 4, 40 UG ONCE IN OLIVE OIL (STUDY DURATION: 104 WK), Dose: 0, 4, 40 UG ONCE IN OLIVE OIL (STUDY DURATION: 104 WK), Tumor Site: Type of Lesion: LIVER: NODULE, INJECTION SITE: TUMOR) was “active; positive”. For the same compound, the carcinogen call (Species: RAT, Strain/Sex: WISTAR/MALE, Route: SUBCUTANEOUS, Dose: 0, 20 UG IN OLIVE OIL 1/WK INTO BACK FOR 4 WK (STUDY DURATION: 104 WK), Tumor Site: Type of Lesion: LIVER: NODULE, INJECTION SITE: TUMOR) was “active; positive”, the carcinogen call (Species: RAT, Strain/Sex: WISTAR/MALE, Route: SUBCUTANEOUS, Dose: 0, 20 UG IN OLIVE OIL INTO BACK 1/WK FOR 4 WK (STUDY DURATION: 104 WK), Tumor Site: Type of Lesion: LIVER: HEPATOCELLULAR CARCINOMA, NODULE) was “active; positive” and the carcinogen call (Species: Rat, Strain/Sex: Harlan Sprague-Dawley/Female, Route: Gavage, Dose: 0, 200 ng 5 d/wk in corn oil:acetone (99:1) for 30 wk and then vehicle for remainder of 2 yr study, Tumor Site: Type of Lesion: Oral Mucosa: Gingival squamous cell carcinoma (1/53, 3/50) Pancreas: Acinar adenoma or carcinoma (0/53, 2/49)) was “active; positive trend (not statistically significant); for stop study vs. controls, inc”. For the same compound, the carcinogen call (Species: Rat, Strain/Sex: Harlan Sprague-Dawley/Female, Route: Gavage, Dose: 0, 6, 20, 44, 92, 200 ng in corn oil:acetone (99:1) 5 d/wk for 2 yrs, Dose: 0, 6, 20, 44, 92, 200 ng in corn oil:acetone (99:1) 5 d/wk for 2 yrs, Tumor Site: Type of Lesion: Liver: Hepatocellular adenoma (1/53, 0/53, 1/53, 0/52, 2/53, 4/53), Cholangiocarcinoma (0/53, 0/53, 0/53, 1/52, 1/53, 2/) was “active; positive (ntp reports as some evidence; findings in lung, pancreas, and uterus d”.
With `CCCl` the carcinogen call (Species: MOUSE, Strain/Sex: B6C3F1/FEMALE, Route: INHALATION, Dose: 0, 15000 PPM IN AIR 6 HR/D 5 D/WK FOR 100 WK (STUDY DURATION: 100 WK), Tumor Site: Type of Lesion: LIVER: HEPATOCELLULAR CARCINOMA, LIVER: HEPATOCELLULAR ADENOMA OR CARCINOMA, UTERUS: CARCINOMA, Tumor Site: Type of Lesion: LIVER: HEPATOCELLULAR CARCINOMA, LIVER: HEPATOCELLULAR ADENOMA OR CARCINOMA, UTERUS: CARCINOMA) was “active; positive”, the carcinogen call (Species: Mouse, Strain/Sex: B6C3F1/Female (50/Group), Route: Inhalation, Dose: 0, 15,000 ppm 6 hr/d, 5 d/wk for 100 wk, Tumor Site: Type of Lesion: Uterus: carcinoma (2% vs 90%, p<10-8), Uterus: lymphoma (2% vs 14%, p=0.03), Liver: adenoma and carcinoma (6% vs 17%, p=, Tumor Site: Type of Lesion: Uterus: carcinoma (2% vs 90%, p<10-8), Uterus: lymphoma (2% vs 14%, p=0.03), Liver: adenoma and carcinoma (6% vs 17%, p=) was “active; positive” and the carcinogen call (Species: Mouse, Strain/Sex: B6C3F1/Male (50/Group), Route: Inhalation, Dose: 0, 15,000 ppm 6 hr/d, 5 d/wk for 100 wk) was “inactive; negative”. For the same compound, the carcinogen call (Species: RAT, Strain/Sex: F344/FEMALE, Route: INHALATION, Dose: 0, 15000 PPM IN AIR 6 HR/D 5 D/WK FOR 102 WK (STUDY DURATION: 102 WK), Tumor Site: Type of Lesion: BRAIN: ASTROCYTOMA) was “equivocal”, the carcinogen call (Species: RAT, Strain/Sex: F344/MALE, Route: INHALATION, Dose: 0, 15000 PPM IN AIR 6 HR/D 5 D/WK FOR 102 WK (STUDY DURATION: 102 WK), Tumor Site: Type of Lesion: SKIN: TRICHOEPITHELIOMA, SEBACEOUS GLAND ADENOMA OR BASAL CELL CARCINOMA) was “equivocal” and the carcinogen call (Species: Rat, Strain/Sex: F344/Female (50/Group), Route: Inhalation, Dose: 0, 15,000 ppm 6 hr/d, 5 d/wk for 102 wk) was “inactive; negative”. The carcinogen call (Species: Rat, Strain/Sex: F344/Male (50/Group), Route: Inhalation, Dose: 0, 15,000 ppm 6 hr/d, 5 d/wk for 102 wk) was “inactive; negative”.
For `Nc1ccc(Oc2ccc(N)c(Cl)c2)cc1Cl`, the carcinogen call (Species: RAT, Route: SUBCUTANEOUS, Tumor Site: Type of Lesion: EAR (CANAL)) was “active; positive”.
